Tests used:
[1] = target: T1, human MCH receptor 1 (MCHR1) (Homo sapiens, UniProt Q99705); test: human MCH receptor 1 (MCHR1) competitive binding assay with [125I]-MCH(4-19); conditions: test compound 0.1 μM, human MCHR1-expressing CHO cell membrane fraction, read-out: Binding inhibition rate % (0.1 μM)
T1 construct: expressed in transfected cells; host or cells: CHO cell clone 57 (membrane fraction)
Outline: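 Percent binding inhibition by 0.1 μM test compound, corrected for nonspecific binding defined with unlabeled MCH(1-19), is read by scintillation after filtration onto PEI-treated GF/C filters. The reaction runs 1 hr at room temperature with [125I]-MCH(4-19) and human MCHR1-CHO cell membranes in Tris-HCl pH 7.5 buffer containing EDTA and protease inhibitors.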

human MCHR1 = target: T2, human MCHR1 (Homo sapiens, UniProt Q99705); test: MCH receptor 1 antagonistic activity, Ca2+ mobilization assay; format: cell-based; conditions: CHO, test compound 0.1 μM; human MCHR1-expressing CHO cells (clone #4); ligand MCH(4-19) 2 nM; read-out: Inhibitory rate % (0.1 μM)
T2 construct: expressed in transfected cells; host or cells: CHO dhfr- cells, clone #4
T2 sequence (Q99705 whole entry): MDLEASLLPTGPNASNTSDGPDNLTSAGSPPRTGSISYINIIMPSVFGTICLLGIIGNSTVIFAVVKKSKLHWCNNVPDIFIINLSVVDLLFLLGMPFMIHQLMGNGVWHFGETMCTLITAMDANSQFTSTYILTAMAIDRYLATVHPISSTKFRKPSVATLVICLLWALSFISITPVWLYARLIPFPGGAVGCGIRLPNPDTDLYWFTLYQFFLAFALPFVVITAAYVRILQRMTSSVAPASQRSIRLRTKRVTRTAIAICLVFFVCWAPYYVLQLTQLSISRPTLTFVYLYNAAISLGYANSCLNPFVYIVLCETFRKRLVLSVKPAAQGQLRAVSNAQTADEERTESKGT
Outline: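 CHO dhfr− cells stably expressing human MCHR1 (clone #4) were used in a fluorometric Ca2+ mobilization assay. Test compounds were run at 0.1 μM, with antagonism expressed as percent inhibition.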

HepG2 cells = test: PLsis (phospholipidosis) inducing potential, NBD-PE uptake; format: cell-based; conditions: 24 hr exposure, relative value to 10 μM Amiodarone, maximum value per unit concentration
Protocol: Evaluation of PLsis Inducing Potential
DMEM medium, L-glutamine, penicillin-streptomycin, pyruvic acid, and N-(7-nitrobenz-2-oxa-1,3-diazol-4-yl)-1,2-hexadecanoyl-sn-glycero-3-phosphoethanolamine triethylammonium salt (NBD-PE) were purchased from Invitrogen Corporation. As bovine serum albumin (BSA), a product of Thermo Trace Ltd. (Melbourne, Australia) was used, and as Amiodarone, a product of ICN (Costa Mesa, Calif.) was used. A test compound was used in the form of a 10 mM DMSO solution.
FBS was added at a final concentration of 5 vol % to DMEM medium supplemented with L-glutamine, pyruvic acid and penicillin-streptomycin and subjected to the experiment. Culture was performed using 5% carbon dioxide gas-95% air as a gas phase in a CO2 incubator at 37° C. HepG2 cells were suspended in a culture medium at 50×10^4 cells/mL, plated in a 96 well plate at 50 μL/well and precultured for 24 hr. After preculture, the culture medium was removed, a culture medium containing 60 μM NBD-PE was added at 50 μL/well, and a culture medium containing 0.6 μM or 20 μM test compounds were each added at 50 μL/well to HepG2 cells, and the cells were cultured for 24 hr. As a positive control, Amiodarone was used at a final concentration of 10 μM.
After exposure to the test compound for 24 hr, the fluorescence intensity (Ex. 485 nm, Em. 538 nm) of NBD-PE uptaken by the cells was measured by a fluorometer. The measurement value with addition of 0 μM test compound solution was subtracted as a blank, a relative value to the measurement 5 value with addition of 10 μM Amiodarone was calculated, and the maximum value per unit concentration of the test compound was obtained as a phospholipidosis (PLsis) inducing potential.

[2] = system: male diet-induced obese F344/Jcl rats; test: Anorectic effect in male diet-induced obese F344/Jcl rats; format: in vivo, rat; conditions: Rattus norvegicus, po, 48 h, 5 mg/mL suspension at 2 mL/kg, two administrations, food intake for 2 days vs control group, read-out: Food intake suppression rate (%)
Protocol: Evaluation of Anorectic Effect Using Male Diet-Induced Obese F344/Jcl Rats
Male diet-induced obese F344/Jcl rats (44-50 weeks old) fed with a high-fat diet (D12451: Research Diets) from 5 weeks old were used. From before the start of experiment, the rats were singly housed, given a powder high-fat diet (D12451M: Research Diets), and habituated to oral administration with tap water. The food intake from the evening of the day before the start of experiment to the next morning was measured, and the rats were grouped based on both the food intake and the body weight of the previous day. In the evening of the day of the start of experiment and the next day, 0.5% methylcellulose solution was orally administered to the control group, and 0.5% methylcellulose suspension (5 mg/mL) of the test compound was orally administered to the compound administration group at 2 mL/kg (6 per group for both control group and compound administration group). The food intake for 2 days from the initial administration was measured. The food intake inhibition rate of each compound administration group to the control group was calculated.

T1 sequence (Q99705 whole entry): as above

Row | inhibition at 0.1 µM [1] [%] | inhibition at 0.1 µM (human MCHR1) [%] | SMILES | PLsis inducing potential (HepG2 cells) | inhibition in vivo at 5000 µg/mL, 10 mg/kg [2] [%]
1 | 70 | 48 | Cn1c(C2CC2)nc2ccc(-n3ccc(OCc4ccc(Cl)cn4)cc3=O)cc21 [Example 112, 4-((5-Chloropyridin-2-yl)methoxy)-1-(2-cyclopropyl-1-methyl-1H-benzimidazol-6-yl)pyridin-2(1H)-one] | 1.6 | 25.5
2 | 95 | 96 | Cn1c(C2CC2)nc2ccc(-n3ccc(OCc4ccc(Cl)s4)cc3=O)cc21 [Example 121, 4-((5-Chloro-2-thienyl)methoxy)-1-(2-cyclopropyl-1-methyl-1H-benzimidazol-6-yl)pyridin-2(1H)-one] | 1.7 | 36.5

More lines, now with the values behind:

Row | SMILES | inhibition at 0.1 µM [1] [%] | inhibition at 0.1 µM (human MCHR1) [%] | PLsis inducing potential (HepG2 cells) | inhibition in vivo at 5000 µg/mL, 10 mg/kg [2] [%]
3 | Cc1c(C2CC2)nc2ccc(-n3ccc(OCc4ccc(F)cc4)cc3=O)cn12 [Example 1, 1-(2-Cyclopropyl-3-methylimidazo[1,2-a]pyridin-6-yl)-4-((4-fluorobenzyl)oxy)pyridin-2(1H)-one] | 91 | 98 | 2.5 | 19.5
4 | Cc1c(C2CC2)nc2ccc(-n3ccc(OCc4ccc(Cl)cc4)cc3=O)cn12 [Example 3, 4-((4-Chlorobenzyl)oxy)-1-(2-cyclopropyl-3-methylimidazo[1,2-a]pyridin-6-yl)pyridin-2(1H)-one] | 88 | 99 | 2.4 | 29.6
5 | Cc1c(C2CC2)nc2ccc(-n3ccc(OCc4ccccc4)cc3=O)cn12 [Example 11, 4-(Benzyloxy)-1-(2-cyclopropyl-3-methylimidazo[1,2-a]pyridin-6-yl)pyridin-2(1H)-one] | 81 | 101 | 2.0 | 21.8

Source: patent publication US9365540B2, “Benzimidazole derivatives as MCH receptor antagonists” (Takeda Pharmaceutical Company Limited, priority 2012, dated 2016)
